From patent US11865103B2, “Methods of treating disorders associated with glycosylation defective proteins” (CASE WESTERN RESERVE UNIVERSITY, priority 2016, dated 2024)

Experiments:
[1] = test system: hCLRN1^N48K-YFP; assay: Hair bundle localization of hCLRN1^N48K-YFP (YFP intensity) in neuromast hair cells of live larvae treated with SERCA inhibitors; type: in vivo, zebrafish; parameters: key to YFP intensity in the bundle compared to untreated control / YFP intensity, post-exposure hair cell body hCLRN1N48K aggregates recovery: “—” = The YFP intensity in the bundle is similar to untreated control.; “+” = The YFP intensity in the bundle is higher compared to untreated control; conditions: for Hair bundles with strong expression of hCLRN1^N48K-YFP protein / Increase in trafficking of hCLRN1^N48K to the hair bundle: 1 μM TG or 0.4 μM ART; for Hair bundles with strong expression of hCLRN1^N48K-YFP protein: untreated <5%, FIG. 4I; for Cumulative average of YFP intensity in the ROI in hair bundles (Mean±SEM) / Increase in trafficking of hCLRN1^N48K to the hair bundle: hCLRN1^N48K-YFP, clrn1^+/+ larvae; for Cumulative average of YFP intensity in the ROI in hair bundles (Mean±SEM): 1 uM TG or 0.4 uM ART + 0.01% DMSO in E3 medium, untreated 5.927±0.32; for Increase in trafficking of hCLRN1^N48K to the hair bundle: versus untreated
Procedure: hCLRN1-YFP predominantly localize to the hair bundle and a weak expression in the hair cell membrane in the transgenic hCLRN1-YFP; clrn1^+/+ zebrafish line, and the human pathogenic variant hCLRN1^N48K-YFP mislocalized in the endoplasmic reticulum (ER) with a small amount manages to get trafficked to the hair bundle of the transgenic hCLRN1^N48K-YFP; clrn1^+/+ zebrafish larvae. A relative quantification of YFP fluorescence intensity was carried-out to compare the quantity of hCLRN1^N48K-YFP that manages to localize in the hair bundle to the hCLRN1-YFP in the hair bundle. To quantify the YFP fluorescence intensity, unadjusted 1 micron middle section images of four hair bundles per neuromast were analyzed in Image J. Fluorescence intensity is reported as the background subtracted Integrated Density value. While Confocal microscopy imaging of neuromast hair bundles from the above mentioned groups, YFP fluorescence channel was unadjusted between siblings from the tested groups, and images chosen for figures were near the mean of the group data. Z-stack image of neuromast hair cells were captures using SP2 confocal microscope and the YFP fluorescence measurements in the hair bundles from 1) control uninjected and 2) unconventional secretory pathway cargo injected groups were obtained using ImageJ. A triangle shaped region of interest covering the area of hair bundle in 1 micron thickness middle section of z-stack image of neuromast hair cells was used to obtain YFP fluorescence pixel intensity measurements (Ihair bundle) and an area without hair cells (Ibackground) in the same image. Fluorescence intensity of YFP (Iload) for each hair bundle in a given neuromast was normalized (Iload=Ihair bundle−Ibackground). We analyzed 4 hair bundle per neuromast per larva, and the YFP fluorescence intensity per neuromast was represented as average of 4 hair bundle YFP intensity (IAvg. load=[…] in a neuromast/larva). And the mean of the total IAvg. load per group was considered for statistical comparison between groups. Student's t-test was used to confirm the observed changes in the YFP intensity in the hair bundles of hGRASP55 mRNA injected compared to hSNX27 mRNA injected and uninjected is significant.
Thapsigargin (TG, 1 mg, Sigma-Aldrich, #T9033) stock in 100% DMSO was diluted in E3 medium to make the required final concentration of the drug. Five different concentrations that were earlier reported to induce ER stress and are non-toxic or lower lethal dose (LD50) in the zebrafish (0.1, 0.5, 1.0, 2.5, 5 μM concentrations) were used in this study. A total of 25 larvae per dosage and treatment duration from the genotypes hCLRN1^N48K-YFP; clrn1^+/+ and hCLRN1-YFP; clrn1^+/+, no older than 72 hours post fertilization (hpf) at the start of the experiment, were placed in a well of 12-well uncoated culture plate (BD Falcon, Canaan, CT). For ER stress induction, larvae were incubated in different dosage of TG from 1 hr to overnight at 28.5° C., followed by three times wash with E3 medium at 28.5° C. (Table 2) and hair cells from the hCLRN1^N48K-YFP; clrn1^+/+ and hCLRN1-YFP; clrn1^+/+ lines were examined for the respective protein distribution pattern in the hair cell bundle and the cell body. Live confocal images of ‘O’ and ‘ML1’ neuromasts per larvae were capture using Leica SP2 confocal microscope with 40× oil immersion objective. Unadjusted 1 micron middle section images of four hair bundles per ML1 neuromast of larvae from TG treated and untreated groups were analyzed using Image J software version v. 1.48 (FIG. 4). The hair bundle trafficked amount of hCLRN1^N48K protein corresponds to the change in YFP intensity in the hair bundle in the TG treated larvae. Quantification of YFP fluorescence intensity was carried out as described in the previous experiment for unconventional trafficking of hCLRN1^N48K-YFP by hGRASP55 cargos. […]

[2] = test system: hCLRN1^N48K-YFP; assay: as above; type: in vivo, zebrafish; parameters: key: “—” = The YFP intensity in the bundle is similar to untreated control.; “+” = The YFP intensity in the bundle is higher compared to untreated control; conditions: ART 0.25 μM

## C[C@@H]1CC[C@H]2[C@@H](C)C(=O)O[C@@H]3O[C@@]4(C)CC[C@@H]1[C@]32OO4 [ART, Artemisinin]
[1]
  Hair bundles with strong expression of hCLRN1^N48K-YFP protein: 76%
  Cumulative average of YFP intensity in the ROI in hair bundles (Mean±SEM): 31.04±1.25
  Increase in trafficking of hCLRN1^N48K to the hair bundle: 5 folds
[1]; ART 0.1 μM, exposure 1 h
  YFP intensity in the bundle compared to untreated control: —
[1]; ART 0.1 μM, exposure 2 h
  YFP intensity in the bundle compared to untreated control: —
[1]; ART 0.1 μM, exposure 4 h
  YFP intensity in the bundle compared to untreated control: —
[1]; ART 0.1 μM, exposure 6 h
  YFP intensity in the bundle compared to untreated control: —
[1]; ART 0.1 μM, exposure 8 h
  YFP intensity in the bundle compared to untreated control: —
[1]; ART 0.1 μM, exposure 10 h
  YFP intensity in the bundle compared to untreated control: —
[1]; ART 0.1 μM, post-exposure recovery time 10 h
  YFP intensity, post-exposure hair cell body hCLRN1N48K aggregates recovery: —
[1]; ART 0.1 μM, post-exposure recovery time 24 h
  YFP intensity, post-exposure hair cell body hCLRN1N48K aggregates recovery: —
[1]; ART 0.1 μM, post-exposure recovery time 48 h
  YFP intensity, post-exposure hair cell body hCLRN1N48K aggregates recovery: —
[1]; ART 0.25 μM, exposure 1 h
  YFP intensity in the bundle compared to untreated control: —
[1]; ART 0.25 μM, exposure 6 h
  YFP intensity in the bundle compared to untreated control: —
[1]; ART 0.25 μM, exposure 10 h
  YFP intensity in the bundle compared to untreated control: —
[1]; ART 0.25 μM, post-exposure recovery time 10 h
  YFP intensity, post-exposure hair cell body hCLRN1N48K aggregates recovery: —
[1]; ART 0.25 μM, post-exposure recovery time 24 h
  YFP intensity, post-exposure hair cell body hCLRN1N48K aggregates recovery: —
[1]; ART 0.25 μM, post-exposure recovery time 48 h
  YFP intensity, post-exposure hair cell body hCLRN1N48K aggregates recovery: —
[1]; ART 0.4 μM, exposure 1 h
  YFP intensity in the bundle compared to untreated control: —
[1]; ART 0.4 μM, exposure 2 h
  YFP intensity in the bundle compared to untreated control: —
[1]; ART 0.4 μM, exposure 6 h
  YFP intensity in the bundle compared to untreated control: +
[2]; exposure 2 h
  YFP intensity in the bundle compared to untreated control: —
[2]; exposure 4 h
  YFP intensity in the bundle compared to untreated control: —
[2]; exposure 8 h
  YFP intensity in the bundle compared to untreated control: —

## C/C=C(/C)C(=O)O[C@H]1C(C)=C2[C@H]([C@@H]1OC(=O)CCCCCCC)[C@@](C)(OC(C)=O)C[C@H](OC(=O)CCC)[C@@]1(O)[C@H]2OC(=O)[C@@]1(C)O [TG, Thapsigargin]
[1]
  Hair bundles with strong expression of hCLRN1^N48K-YFP protein: 38%
  Cumulative average of YFP intensity in the ROI in hair bundles (Mean±SEM): 18.59±0.87
  Increase in trafficking of hCLRN1^N48K to the hair bundle: 3 folds
[1]; TG 0.1 μM, exposure 1 h
  YFP intensity in the bundle compared to untreated control: —
[1]; TG 0.1 μM, exposure 2 h
  YFP intensity in the bundle compared to untreated control: —
[1]; TG 0.1 μM, exposure 3 h
  YFP intensity in the bundle compared to untreated control: —
[1]; TG 0.1 μM, exposure 4 h
  YFP intensity in the bundle compared to untreated control: —
[1]; TG 0.1 μM, exposure 8 h
  YFP intensity in the bundle compared to untreated control: —
[1]; TG 0.1 μM, exposure 16 h
  YFP intensity in the bundle compared to untreated control: —
[1]; TG 0.5 μM, exposure 1 h
  YFP intensity in the bundle compared to untreated control: —
[1]; TG 0.5 μM, exposure 2 h
  YFP intensity in the bundle compared to untreated control: —
[1]; TG 0.5 μM, exposure 3 h
  YFP intensity in the bundle compared to untreated control: —
[1]; TG 0.5 μM, exposure 4 h
  YFP intensity in the bundle compared to untreated control: —
[1]; TG 0.5 μM, exposure 8 h
  YFP intensity in the bundle compared to untreated control: —
[1]; TG 1.0 μM, exposure 1 h
  YFP intensity in the bundle compared to untreated control: —
[1]; TG 1.0 μM, exposure 2 h
  YFP intensity in the bundle compared to untreated control: —
[1]; TG 1.0 μM, exposure 3 h
  YFP intensity in the bundle compared to untreated control: +
[1]; TG dosages lower than 1 μM
  Rescue of mutant protein to the hair bundle: inefficient in rescuing mutant protein
